In paper PMC8802628, “Selective activation of PFKL suppresses the phagocytic oxidative burst” (Cell, 2021):
Values joined by “and” are separate entries in the source; they are usually repeats but may differ in a detail not shown here. Equal entries are not always repeated. “Also recorded” adds a separate entry of the source.

Legend:
[1] = tested on: human peripheral blood neutrophils; assay: NETosis assay in human neutrophils (SYTOX Green, DNA area); assay type: cell-based; details: for inhibition of PMA-induced NETosis: SAR analogs compared to LDC7559; for fold more potent than LDC7559, inhibition of NETosis: compared to LDC7559
Method: Freshly purified neutrophils were plated at 6 × 10^3 cells/well in glass bottom 96-well plates (SensoPlate, Greiner Bio-One 82050-792) in the RPMI medium described above. Cells were pretreated with DMSO vehicle, 0.5 μM NA-11, 100 μM apocynin, 0.5 μM and 5 μM PALP, or 0.5 μM and 5 μM LDC7559 for 30 min, and then stimulated with 50 nM PMA, 1 μM f-MLP, 5 μg/mL cholesterol crystals, 10 μg/mL LPS, 25 μM nigericin, or 25 μM calcymicin (A23187) for 3 h (except in Figures S1A, 6A and S7C, where cells were stimulated for 4 h). Cells were fixed and permeabilized in 2.5% paraformaldehyde (PFA) and 0.02% Triton X-100 in PBS for 30 min. For quantification of NETosis, cells were stained with 150 nM SYTOX Green and imaged in a KEYENCE Fluorescence Microscope (KEYENCE, ZB-X800E) at 10 x magnification. For immunolabeling, fixed cells were blocked with 2% BSA for 1 h, and then stained with anti-CitH3 and anti-MPO antibodies at a dilution of 1/200 in 1% BSA in PBS. Images were taken at 60 x magnification using an ImageXpress Micro Confocal high-content imaging system (Molecular Devices).
Semi-automated analysis of both phase and fluorescence images of SYTOX Green-stained neutrophils used a specialized MATLAB algorithm. Total cells were counted by scoring phase standard deviation and radial symmetry. NETosis was classified in cells by measuring the DNA area in the fluorescence image and comparing with a select internal training set for each experiment. Unstimulated cells and PMA-stimulated, […] cells served as negative controls. PMA-stimulated cells served as a positive control. NET-forming cells are presented as a percentage of total cells.

[2] = tested on: PMNs; assay: ROS detection assay (ROS-Glo) in neutrophils; assay type: cell-based, human; details: for PMA-induced ROS production: 50 nM PMA
Method: ROS were measured using the ROS-Glo bioluminescent assay (Promega) for the direct detection of H2O2. Briefly, neutrophils (2 × 10^4) were plated in white 96-well plates (Greiner) in high glucose DMEM medium. Cells were cultured with DMSO vehicle, 0.5 μM NA-11, 5 μM LDC7559, 100 μM apocynin, or 200 μM thionicotinamide for 30 min, and then stimulated with 50 nM PMA or treated with 10 μg/mL zymosan beads, pre-opsonized in 20% serum for 30 min. Luminescence, after the addition of H2O2 substrate solution of 20 min, and then ROS-Glo detection solution for 20 min, was recorded on a plate reader (Envision).

| Compound | NOX2-dependent NETosis induced by fMLP, LPS, and cholesterol crystals ([1]; 0.5 μM, 4 h stimulation) | inhibition of PMA-induced NETosis ([1]; PMA) | fold more potent than LDC7559, inhibition of NETosis [1] | IC50 ([1]; human PMNs, PMA, read-out: IC50, inhibition of PMA-induced NETosis) | PMA-induced ROS production [2] | ROS production during phagocytosis of opsonized zymosan ([2]; over 2 h) | ability to inhibit NETosis (activity range) ([1]; neutrophils) | spontaneous NETosis ([1]; no stimulus) |
| --- | --- | --- | --- | --- | --- | --- | --- | --- |
| CC(=O)Nc1ccc2c(c1)OCc1cc(-c3ccccc3C#CCCCO)nn1C2 [NA-11] | inhibited NOX2-dependent NETosis | inhibiting NOX2-dependent NETosis induced by PMA | ~ 1,000 fold and 1,000 fold | 4 ± 0.5 nM | inhibited PMA-induced ROS production; also recorded: markedly suppressed, but did not completely prevent, PMA-induced ROS | kept ROS production at basal levels |  |  |
| CC(=O)Nc1ccc2c(c1)OCc1cc(-c3ccccc3)nn1C2 [NA-5] |  |  | ~ 10 fold |  |  |  |  |  |
| COc1ccccc1-c1cc2n(n1)Cc1ccc(NC(C)=O)cc1OC2 [LDC7559, reference compound] |  | inhibited PMA-induced NETosis in a dose-dependent manner |  |  | inhibited PMA-induced ROS production |  | low-micromolar range | did not prevent spontaneous NETosis |
